US11230543B2, “Biaryl monobactam compounds and methods of use thereof for the treatment of bacterial infections” (priority 2015, dated 2022)
Structures can show the parent of a compound that is named as a salt.

Assays:
[1] = tested on: Pseudomonas aeruginosa expressing AmpC (CL5701); experiment: Antibiotic activity: growth inhibitory concentration (OD600), Pseudomonas aeruginosa CL5701; type: cell-based; settings: lowest concentration inhibiting 95% of bacterial growth; in the presence of β lactamase inhibitor Relebactam 4 μg/mL; 35±2° C. for 22 hours; tested range 100 μM to 0.098 μM
How it was run: (§1)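 Growth inhibition by OD600 after 22 hours incubation at 35±2° C, reported as lowest concentration inhibiting 95% of growth (MITC95). Final compound range 100 μM to 0.098 μM, always combined with β-lactamase inhibitor relebactam (4 μg/mL final); inoculum ~2×10^5 CFU/mL in cation-adjusted Mueller-Hinton II broth.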

[2] = tested on: Klebsiella pneumoniae expressing KPC-1 (CL6569); experiment: Antibiotic activity: growth inhibitory concentration (OD600), Klebsiella pneumoniae CL6569; type: cell-based; settings: lowest concentration inhibiting 95% of bacterial growth; in the presence of β lactamase inhibitor Relebactam 4 μg/mL; 35±2° C. for 22 hours; tested range 100 μM to 0.098 μM
How it was run: as §1

Compound	PA_CL5701 MITC95 [1]	KP_CL6569 MITC95 [2]
CC1(C)[C@H](NC(=O)/C(=N\O[C@@H](COc2ccc(-c3ccc(C(=O)NC(CN)CN)nc3)cc2)C(=O)O)c2csc(N)n2)C(=O)N1OS(=O)(=O)O [Example 81, (S)-2-((((Z)-1-(2-aminothiazol-4-yl)-2-(((S)-2,2-dimethyl-4-oxo-1-(sulfooxy)azetidin-3-yl)amino)-2-oxoethylidene)amino)oxy)-3-(4-(6-((1,3-diaminopropan-2-yl)carbamoyl)pyridin-3-yl)phenoxy)propanoic acid]	3.125 µM	0.1953 µM
C[n+]1cc(-c2ccc(OC[C@H](O/N=C(\C(=O)N[C@@H]3C(=O)N(OS(=O)(=O)[O-])C3(C)C)c3csc(N)n3)C(=O)O)cc2)ccc1NC(CN)CN [Example 82, (S)-3-((Z)-2-(2-aminothiazol-4-yl)-2-(((S)-1-carboxy-2-(4-(6-((1,3-diaminopropan-2-yl)amino)-1-methylpyridin-1-ium-3-yl)phenoxy)ethoxy)imino)acetamido)-2,2-dimethyl-4-oxoazetidin-1-yl sulfate]	3.125 µM	0.1953 µM
C[n+]1cc(-c2ccc(OC[C@H](O/N=C(\C(=O)N[C@@H]3C(=O)N(OS(=O)(=O)[O-])C3(C)C)c3csc(N)n3)C(=O)O)cc2)cnc1N(CCN)CC1CNC1 [Example 83, (S)-3-((Z)-2-(((S)-2-(4-(2-((2-aminoethyl)(azetidin-3-ylmethyl)amino)-1-methylpyrimidin-1-ium-5-yl)phenoxy)-1-carboxyethoxy)imino)-2-(2-aminothiazol-4-yl)acetamido)-2,2-dimethyl-4-oxoazetidin-1-yl sulfate]	1.563 µM	0.1953 µM
C[n+]1cc(-c2ccc(OC(CO/N=C(\C(=O)N[C@@H]3C(=O)N(OS(=O)(=O)[O-])C3(C)C)c3csc(N)n3)C(=O)O)cc2)cn1CCCN (stereo partly drawn) [Example 84, (3S)-3-((2-(4-(1-(3-aminopropyl)-2-methyl-1H-pyrazol-2-ium-4-yl)phenoxy)-2-carboxyethoxy)imino)-2-(2-aminothiazol-4-yl)acetamido)-2,2-dimethyl-4-oxoazetidin-1-yl sulfate]	40 µM	2.5 µM
CC1(C)[C@H](NC(=O)/C(=N\OCCOc2ccc(-c3nc4c([nH]3)CNCC4)cc2)c2csc(N)n2)C(=O)N1OS(=O)(=O)O [Example 86, (S)-3-(2-(2-aminothiazol-4-yl)-2-((2-(4-(4,5,6,7-tetrahydro-3H-imidazo[4,5-c]pyridin-2-yl)phenoxy)ethoxy)imino)acetamido)-2,2-dimethyl-4-oxoazetidin-1-yl hydrogen sulfate]	25 µM	1.281 µM
C[n+]1cc(-c2ccc(OC[C@](C)(O/N=C(\C(=O)N[C@@H]3C(=O)N(OS(=O)(=O)O)C3(C)C)c3csc(N)n3)C(=O)O)cc2)ccc1NCCN [Example 87, (S)-3-((Z)-2-((((S)-1-(4-(6-((2-aminoethyl)amino)-1-methylpyridin-1-ium-3-yl)phenoxy)-2-carboxypropan-2-yl)oxy)imino)-2-(2-aminothiazol-4-yl)acetamido)-2,2-dimethyl-4-oxoazetidin-1-yl sulfate]	3.125 µM	0.1953 µM
C[n+]1cc(-c2ccc(OC[C@H](O/N=C(\C(=O)N[C@@H]3C(=O)N(OS(=O)(=O)O)C3(C)C)c3csc(N)n3)C(=O)O)cc2)ccc1CCCN [Example 88, (S)-3-((Z)-2-(((S)-2-(4-(6-(3-aminopropyl)-1-methylpyridin-1-ium-3-yl)phenoxy)-1-carboxyethoxy)imino)-2-(2-aminothiazol-4-yl)acetamido)-2,2-dimethyl-4-oxoazetidin-1-yl sulfate]	3.125 µM	0.3906 µM
C[n+]1cc(-c2ccc(OC[C@@H](CO)O/N=C(\C(=O)N[C@@H]3C(=O)N(OS(=O)(=O)O)C3(C)C)c3csc(N)n3)cc2)ccc1NCCN [Example 89, (S)-3-((Z)-2-((((R)-1-(4-(6-((2-aminoethyl)amino)-1-methylpyridin-1-ium-3-yl)phenoxy)-3-hydroxypropan-2-yl)oxy)imino)-2-(2-aminothiazol-4-yl)acetamido)-2,2-dimethyl-4-oxoazetidin-1-yl sulfate]	50 µM	1.563 µM
C[C@@H](COc1ccc(-c2ccc(NCCN)[n+](C)c2)cc1)O/N=C(\C(=O)N[C@@H]1C(=O)N(OS(=O)(=O)O)C1(C)C)c1csc(N)n1 [Example 90, (S)-3-((Z)-2-((((S)-1-(4-(6-((2-aminoethyl)amino)-1-methylpyridin-1-ium-3-yl)phenoxy)propan-2-yl)oxy)imino)-2-(2-aminothiazol-4-yl)acetamido)-2,2-dimethyl-4-oxoazetidin-1-yl sulfate]	25 µM	1.563 µM
C[n+]1cc(-c2ccc(NCC(O/N=C(\C(=O)N[C@@H]3C(=O)N(OS(=O)(=O)[O-])C3(C)C)c3csc(N)n3)C(=O)O)cc2)cn1CCCN (stereo partly drawn) [Example 91, (3S)-3-(2-((2-((4-(1-(3-aminopropyl)-2-methyl-1H-pyrazol-2-ium-4-yl)phenyl)amino)-1-carboxyethoxy)imino)-2-(2-aminothiazol-4-yl)acetamido)-2,2-dimethyl-4-oxoazetidin-1-yl sulfate]	12.5 µM	0.7813 µM
CN(CC(O/N=C(\C(=O)N[C@@H]1C(=O)N(OS(=O)(=O)[O-])C1(C)C)c1csc(N)n1)C(=O)O)c1ccc(-c2cn(CCCN)[n+](C)c2)cc1 (stereo partly drawn) [Example 92, (3S)-3-(2-((2-((4-(1-(3-aminopropyl)-2-methyl-1H-pyrazol-2-ium-4-yl)phenyl)(methyl)amino)-1-carboxyethoxy)imino)-2-(2-aminothiazol-4-yl)acetamido)-2,2-dimethyl-4-oxoazetidin-1-yl sulfate]	100 µM	6.25 µM
CC1(C)[C@H](NC(=O)/C(=N\O[C@@H](COc2ccc(C3CN=C(NCCN)NC3)cc2)C(=O)O)c2csc(N)n2)C(=O)N1OS(=O)(=O)O (stereo partly drawn) [Example 94, (2S)-3-(4-(2-((2-aminoethyl)amino)-1,4,5,6-tetrahydropyrimidin-5-yl)phenoxy)-2-((((Z)-1-(2-aminothiazol-4-yl)-2-(((S)-2,2-dimethyl-4-oxo-1-(sulfooxy)azetidin-3-yl)amino)-2-oxoethylidene)amino)oxy)propanoic acid]	3.125 µM	0.1953 µM
CC1(C)[C@H](NC(=O)/C(=N\O[C@@](C)(COc2ccc(C3CN=C(NCCN)NC3)cc2)C(=O)O)c2csc(N)n2)C(=O)N1OS(=O)(=O)O (stereo partly drawn) [Example 95, (2S)-3-(4-(2-((2-aminoethyl)amino)-1,4,5,6-tetrahydropyrimidin-5-yl)phenoxy)-2-((((Z)-1-(2-aminothiazol-4-yl)-2-(((S)-2,2-dimethyl-4-oxo-1-(sulfooxy)azetidin-3-yl)amino)-2-oxoethylidene)amino)oxy)-2-methylpropanoic acid]	3.125 µM	0.3906 µM
Cn1c(-c2ccc(OC[C@H](O/N=C(\C(=O)N[C@@H]3C(=O)N(OS(=O)(=O)O)C3(C)C)c3csc(N)n3)C(=O)O)cc2F)cn(CCCN)c1=N [Example 96, (S)-3-(4-(1-(3-aminopropyl)-2-imino-3-methyl-2,3-dihydro-1H-imidazol-4-yl)-3-fluorophenoxy)-2-((((Z)-1-(2-aminothiazol-4-yl)-2-(((S)-2,2-dimethyl-4-oxo-1-(sulfooxy)azetidin-3-yl)amino)-2-oxoethylidene)amino)oxy)propanoic acid]	6.25 µM	0.3906 µM
CC1(C)[C@H](NC(=O)/C(=N\O[C@@H](COc2ccc(-c3cn(CCCN)[n+](CC4CNC4)c3)cc2)C(=O)O)c2csc(N)n2)C(=O)N1OS(=O)(=O)[O-] [Example 97, (S)-3-((Z)-2-(((S)-2-(4-(1-(3-aminopropyl)-2-(azetidin-3-ylmethyl)-1H-pyrazol-2-ium-4-yl)phenoxy)-1-carboxyethoxy)imino)-2-(2-aminothiazol-4-yl)acetamido)-2,2-dimethyl-4-oxoazetidin-1-yl sulfate]	1.781 µM	0.125 µM
CC1(C)[C@H](NC(=O)/C(=N\O[C@@H](COc2ccc(-c3ccc(NCCN)[n+](CC4CNC4)c3)cc2)C(=O)O)c2csc(N)n2)C(=O)N1OS(=O)(=O)[O-] [Example 98, (S)-3-((Z)-2-(((S)-2-(4-(6-((2-aminoethyl)amino)-1-(azetidin-3-ylmethyl)pyridin-1-ium-3-yl)phenoxy)-1-carboxyethoxy)imino)-2-(2-aminothiazol-4-yl)acetamido)-2,2-dimethyl-4-oxoazetidin-1-yl sulfate]	1.563 µM	0.09766 µM
CC1(C)[C@H](NC(=O)/C(=N\O[C@@H](COc2ccc(-c3cnc(NCCN)[n+](CC4CNC4)c3)cc2)C(=O)O)c2csc(N)n2)C(=O)N1OS(=O)(=O)[O-] [Example 99, (S)-3-((Z)-2-(((S)-2-(4-(2-((2-aminoethyl)amino)-1-(azetidin-3-ylmethyl)pyrimidin-1-ium-5-yl)phenoxy)-1-carboxyethoxy)imino)-2-(2-aminothiazol-4-yl)acetamido)-2,2-dimethyl-4-oxoazetidin-1-yl sulfate]	3.125 µM	0.1953 µM
CC1(C)[C@H](NC(=O)/C(=N\O[C@@H](COc2ccc(-c3cn(CCCN)[n+](CCN)c3)cc2)C(=O)O)c2csc(N)n2)C(=O)N1OS(=O)(=O)[O-] [Example 100, (S)-3-((Z)-2-(((S)-2-(4-(2-(2-aminoethyl)-1-(3-aminopropyl)-1H-pyrazol-2-ium-4-yl)phenoxy)-1-carboxyethoxy)imino)-2-(2-aminothiazol-4-yl)acetamido)-2,2-dimethyl-4-oxoazetidin-1-yl sulfate]	3.125 µM	0.39 µM
